HELM strings list units from the 5' end as sugar, base in round brackets, then linkage (d deoxyribose, r ribose, m 2'-O-methyl, p phosphodiester). [sp] = phosphorothioate linkage

These results are taken from the OligoGym collection.

Series [1] has as its target CTNNB1. In words: HEK293-TLR8, 100 nM ASO, then resiquimod.
The target of series [2] is CTNNB1. In words: HEK293-TLR7, 100 nM ASO, then resiquimod.

“RNA1{m(A)[sp].m(C)[sp].m(C)[sp].m(A)[sp].m(C)[sp].d(C)[sp].d(C)[sp].d(A)[sp].d(C)[sp].d(T)[sp].d(T)[sp].d(G)[sp].d(G)[sp].d(C)[sp].d(A)[sp].m(G)[sp].m(A)[sp].m(C)[sp].m(C)[sp].m(A)}$$$$”: the TLR8 potentiation (NF-kB luciferase) (fold of resiquimod alone) with CTNNB1 [1] is 1.71. Moreover, in the series with CTNNB1 [2], the TLR7 signal (NF-kB luciferase) (% of resiquimod alone) was 63.4.
On the same counts, the results for “RNA1{m(A)[sp].m(C)[sp].m(C)[sp].m(C)[sp].m(A)[sp].d(A)[sp].d(G)[sp].d(G)[sp].d(C)[sp].d(A)[sp].d(T)[sp].d(C)[sp].d(C)[sp].d(T)[sp].d(G)[sp].m(G)[sp].m(C)[sp].m(C)[sp].m(A)[sp].m(U)}$$$$” are 2.29 and 70.7.
As to “RNA1{m(A)[sp].m(C)[sp].m(C)[sp].m(C)[sp].m(A)[sp].d(C)[sp].d(T)[sp].d(T)[sp].d(G)[sp].d(G)[sp].d(C)[sp].d(A)[sp].d(G)[sp].d(A)[sp].d(C)[sp].m(C)[sp].m(A)[sp].m(U)[sp].m(C)[sp].m(A)}$$$$”, in the series with CTNNB1 [1], the TLR8 potentiation (NF-kB luciferase) (fold of resiquimod alone) turned out to be 2.74. Further, in the series with CTNNB1 [2], the TLR7 signal (NF-kB luciferase) (% of resiquimod alone) turned out to be 65.8.
Take “RNA1{m(A)[sp].m(C)[sp].m(U)[sp].m(G)[sp].m(C)[sp].d(A)[sp].d(T)[sp].d(T)[sp].d(C)[sp].d(T)[sp].d(G)[sp].d(G)[sp].d(G)[sp].d(C)[sp].d(C)[sp].m(A)[sp].m(U)[sp].m(C)[sp].m(U)[sp].m(C)}$$$$”: in the series with CTNNB1 [1], the TLR8 potentiation (NF-kB luciferase) (fold of resiquimod alone) turned out to be 2.96. In the series with CTNNB1 [2], the TLR7 signal (NF-kB luciferase) (% of resiquimod alone) turned out to be 73.2.
On the same counts, the results for “RNA1{m(A)[sp].m(C)[sp].m(U)[sp].m(G)[sp].m(U)[sp].d(G)[sp].d(T)[sp].d(A)[sp].d(G)[sp].d(A)[sp].d(T)[sp].d(G)[sp].d(G)[sp].d(G)[sp].d(A)[sp].m(U)[sp].m(C)[sp].m(U)[sp].m(G)[sp].m(C)}$$$$” are 3.43 and 99.8.
On the same counts, the results for “RNA1{m(A)[sp].m(G)[sp].m(A)[sp].m(U)[sp].m(C)[sp].d(T)[sp].d(G)[sp].d(G)[sp].d(C)[sp].d(A)[sp].d(G)[sp].d(C)[sp].d(C)[sp].d(C)[sp].d(A)[sp].m(U)[sp].m(C)[sp].m(A)[sp].m(A)[sp].m(C)}$$$$” are 1.89 and 55.4.
On the same counts, the results for “RNA1{m(A)[sp].m(U)[sp].m(U)[sp].m(U)[sp].m(U)[sp].d(A)[sp].d(A)[sp].d(G)[sp].d(C)[sp].d(A)[sp].d(T)[sp].d(A)[sp].d(T)[sp].d(T)[sp].d(A)[sp].m(A)[sp].m(A)[sp].m(A)[sp].m(A)[sp].m(G)}$$$$” are 2.37 and 47.
Consider “RNA1{m(C)[sp].m(A)[sp].m(A)[sp].m(U)[sp].m(G)[sp].d(G)[sp].d(G)[sp].d(A)[sp].d(G)[sp].d(A)[sp].d(A)[sp].d(T)[sp].d(A)[sp].d(A)[sp].d(A)[sp].m(G)[sp].m(C)[sp].m(A)[sp].m(G)[sp].m(C)}$$$$”, for which, in the series with CTNNB1 [1], the TLR8 potentiation (NF-kB luciferase) (fold of resiquimod alone) was found to be 2.5. This substance displayed a TLR7 signal (NF-kB luciferase) (% of resiquimod alone) with CTNNB1 [2] of 73.7.
On the same counts, the results for “RNA1{m(C)[sp].m(A)[sp].m(C)[sp].m(C)[sp].m(C)[sp].d(A)[sp].d(C)[sp].d(T)[sp].d(T)[sp].d(G)[sp].d(G)[sp].d(C)[sp].d(A)[sp].d(G)[sp].d(A)[sp].m(C)[sp].m(C)[sp].m(A)[sp].m(U)[sp].m(C)}$$$$” are 1.12 and 91.5.
Turning to “RNA1{m(C)[sp].m(A)[sp].m(G)[sp].m(A)[sp].m(U)[sp].d(A)[sp].d(G)[sp].d(C)[sp].d(A)[sp].d(C)[sp].d(C)[sp].d(T)[sp].d(T)[sp].d(C)[sp].d(A)[sp].m(G)[sp].m(C)[sp].m(A)[sp].m(C)[sp].m(U)}$$$$”, in the series with CTNNB1 [1], the TLR8 potentiation (NF-kB luciferase) (fold of resiquimod alone) is 3.22. The substance also registered a TLR7 signal (NF-kB luciferase) (% of resiquimod alone) in the series with CTNNB1 [2] of 126.
Consider “RNA1{m(C)[sp].m(A)[sp].m(G)[sp].m(A)[sp].m(U)[sp].d(T)[sp].d(A)[sp].d(C)[sp].d(A)[sp].d(A)[sp].d(T)[sp].d(T)[sp].d(A)[sp].d(A)[sp].d(T)[sp].m(U)[sp].m(A)[sp].m(G)[sp].m(A)[sp].m(G)}$$$$”, for which the TLR8 potentiation (NF-kB luciferase) (fold of resiquimod alone) in the series with CTNNB1 [1] was 2.76. For the same substance, in the series with CTNNB1 [2], the TLR7 signal (NF-kB luciferase) (% of resiquimod alone) was determined as 80.8.
On the same counts, the results for “RNA1{m(C)[sp].m(A)[sp].m(U)[sp].m(A)[sp].m(U)[sp].d(T)[sp].d(A)[sp].d(A)[sp].d(A)[sp].d(A)[sp].d(A)[sp].d(G)[sp].d(G)[sp].d(A)[sp].d(A)[sp].m(A)[sp].m(C)[sp].m(U)[sp].m(A)[sp].m(A)}$$$$” are 2.31 and 108.
On the same counts, the results for “RNA1{m(C)[sp].m(C)[sp].m(A)[sp].m(C)[sp].m(C)[sp].d(C)[sp].d(A)[sp].d(C)[sp].d(T)[sp].d(T)[sp].d(G)[sp].d(G)[sp].d(C)[sp].d(A)[sp].d(G)[sp].m(A)[sp].m(C)[sp].m(C)[sp].m(A)[sp].m(U)}$$$$” are 0.99 and 86.9.
On the same counts, the results for “RNA1{m(C)[sp].m(G)[sp].m(A)[sp].m(A)[sp].m(U)[sp].d(G)[sp].d(A)[sp].d(A)[sp].d(T)[sp].d(T)[sp].d(A)[sp].d(A)[sp].d(A)[sp].d(A)[sp].d(G)[sp].m(U)[sp].m(U)[sp].m(U)[sp].m(A)[sp].m(A)}$$$$” are 3.01 and 104.
